Source: article PMC11230136 (Cell reports, 2024)

Tests used:
[1] = system: pilocarpine-induced SE mice; test: Pilocarpine-induced status epilepticus
hippocampal neurons = test: Apoptotic nuclei; assay type: cell-based, rat; details: 1-h 100 μM NMDA, co-incubation with 5 μM inhibitor
[2] = molecular target: activated c-Abl immunoprecipitated from neurons (Rattus norvegicus, UniProt A0ABK0LKB8); test: In vitro phosphorylation kinase assay; assay type: biochemical; details: pre-incubation with 5 μM inhibitor (controls)
activated c-Abl immunoprecipitated from neurons, sequence (A0ABK0LKB8 1-1124): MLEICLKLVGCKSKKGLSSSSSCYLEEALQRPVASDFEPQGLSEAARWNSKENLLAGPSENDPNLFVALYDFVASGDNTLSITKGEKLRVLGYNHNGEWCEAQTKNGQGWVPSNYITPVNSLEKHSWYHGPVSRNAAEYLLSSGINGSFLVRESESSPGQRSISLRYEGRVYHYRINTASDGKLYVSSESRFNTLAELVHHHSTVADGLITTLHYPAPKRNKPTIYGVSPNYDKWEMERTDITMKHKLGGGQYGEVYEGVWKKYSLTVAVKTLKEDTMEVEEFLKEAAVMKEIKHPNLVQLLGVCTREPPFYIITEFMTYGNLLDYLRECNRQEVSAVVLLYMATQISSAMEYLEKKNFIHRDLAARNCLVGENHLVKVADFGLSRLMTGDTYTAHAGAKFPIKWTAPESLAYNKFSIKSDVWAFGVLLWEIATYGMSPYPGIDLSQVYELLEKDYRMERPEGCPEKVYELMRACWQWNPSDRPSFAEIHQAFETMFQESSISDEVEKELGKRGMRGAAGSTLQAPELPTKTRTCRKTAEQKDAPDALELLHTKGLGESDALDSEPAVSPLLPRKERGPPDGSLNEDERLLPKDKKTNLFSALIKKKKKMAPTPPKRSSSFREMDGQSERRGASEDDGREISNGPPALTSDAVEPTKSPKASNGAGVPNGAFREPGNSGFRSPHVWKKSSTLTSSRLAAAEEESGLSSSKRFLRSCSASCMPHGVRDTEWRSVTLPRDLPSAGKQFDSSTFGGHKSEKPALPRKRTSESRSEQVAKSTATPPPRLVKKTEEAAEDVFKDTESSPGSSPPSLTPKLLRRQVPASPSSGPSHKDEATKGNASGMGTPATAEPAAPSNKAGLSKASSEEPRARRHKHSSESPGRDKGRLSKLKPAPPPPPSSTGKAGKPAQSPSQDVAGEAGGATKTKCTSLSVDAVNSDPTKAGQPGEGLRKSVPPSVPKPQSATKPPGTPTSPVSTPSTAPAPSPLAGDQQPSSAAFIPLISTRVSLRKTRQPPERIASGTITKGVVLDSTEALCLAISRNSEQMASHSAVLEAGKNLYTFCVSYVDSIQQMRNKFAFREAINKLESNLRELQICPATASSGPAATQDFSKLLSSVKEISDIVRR

[3] = In vivo toxicity / tolerability observation; set-up: species or system mouse; details: diet 20, 67 or 200 ppm for 14 days
[4] = i.p. pre-treatment 12.5 mg/kg for 3 days, 60 min post pilocarpine
[5] = diet for 15 days (neurotinib 67 ppm, nilotinib 200 ppm), 60 min post pilocarpine

| SMILES | Mice with SE [1, 4] [%] | Mice with single seizures but no SE [1, 4] [%] | Total mortality [1, 4] [%] | apoptotic nuclei (Hoechst) (hippocampal neurons) | CRKII-GST phosphorylation [2] | Mice with SE [1, 5] [%] | Total mortality [1, 5] | Latency SE ([1]; diet for 15 days (neurotinib 67 ppm, nilotinib 200 ppm), mean ± SEM) [min] | acute toxicity or changes in behavior [3] |
| --- | --- | --- | --- | --- | --- | --- | --- | --- | --- |
| Cc1ccc(NC(=O)c2ccc(CN3CCN(C)CC3)cc2)cc1Nc1nccc(-c2cccnc2)n1 [imatinib] | 68 | 29 | 36 | apoptosis reduction | inhibits CRKII-GST phosphorylation |  |  |  |  |
| Cc1cn(-c2cc(NC(=O)c3ccc(C)c(Nc4nccc(-c5cccnc5)n4)c3)cc(C(F)(F)F)c2)cn1 [nilotinib] |  |  |  |  |  | 70 | none | 32.6 ± 6.1 | No signs of acute toxicity or changes in behavior |
